Reference: PMC10108392, “Rimonabant-Based Compounds Bearing Hydrophobic Amino Acid Derivatives as Cannabinoid Receptor Subtype 1 Ligands” (ACS Medicinal Chemistry Letters, 2023)
“Also recorded” adds a separate entry of the source.

What was measured:
mice [1] = experiment: Hot plate test; type: in vivo, mouse; details: 10 μg/10 μL i.c.v., 15-120 min
Text: (§1) In Vivo Biological Assays
The international and national law and policies approved by Italian Ministry of Health were used to comply with all animal care and experimental procedures. Animal studies were advised in compliance with the ARRIVE guidelines and with the recommendations made by EU Directive 2010/63/EU for animal experiments and the Basel declaration including the 3Rs concept. CD-1 male mice (10-14 weeks of age, 25-30 g of weight) were bought from Charles River (Milan, Italy). […]
The test was carried out as previously described. […] Mice were transferred into transparent and individual plastic cages with thick white paper lining the bottom and access to a pre-measured amount of their regular lab chow (2 gr) for the 1-h test. […] The amount of food left in the trial cage, including crumbs, was measured, and the amount consumed was calculated. […]
Thermal nociception (hot-plate test) was assessed with a commercially available apparatus consisting of a metal plate 25x25 cm (Ugo Basile, Italy) heated to a constant temperature of 55.0 ± 0.1 °C, on which a plastic cylinder (20 cm diameter, 18 cm high) was placed. The time of latency (s) was recorded from the moment the animal was placed in the cylinder on the hot plate until it licked its paws or jumped; the cut-off time was 60 s. […] The time course of latency was then determined at 15, 30, 45, 60, 90 and 120 min after compound treatment. […]

mice [2] = experiment: Zymosan-induced paw edema; type: in vivo, mouse
Experimental: Drugs were administered s.c. in the dorsal surface of the right hind paw at the dose of 100 μg/20 μL, 15 min before zymosan. […]
testing. […] Then, the compounds were
Compounds were prepared by freshly diluting
Then, these solutions were injected for
The total time the animal spent licking or biting its paw was calculated.
Then, paw edema was calculated as formerly
Paw volume was quantified using a
Data Analysis and Statistics
Statistically significant differences between
Data were considered statistically
The data and statistical analyses respected the recommendations on experimental design and analysis.

mice [3] = experiment: Feeding test (food intake); type: in vivo, mouse; details: 10 mg/kg i.p., 1-h test, vs vehicle
Experimental: The tested compounds were injected i.p. (10 mg/kg), and after leaving for 30 min to allow the drug assimilation, mice were placed into individual cages with access to a predefined amount of their standard lab chow (2 g) for the 1-h test.
as §1
The international and national law and policies approved by Italian Ministry of Health were used to comply with all animal care and experimental procedures. Animal studies were advised in compliance with the ARRIVE guidelines and with the recommendations made by EU Directive 2010/63/EU for animal experiments and the Basel declaration including the 3Rs concept. CD-1 male mice (10-14 weeks of age, 25-30 g of weight) were bought from Charles River (Milan, Italy). Shortly after their arrival and for at least one week, they were kept in an animal care facility under controlled standard conditions of temperature (21 ± 1 °C), light (from 7:00 AM to 7:00 PM), and relative humidity (60 ± 10%). Access to drinking water and food was assured. All procedures were performed to decrease the number of animals used (n = 7 per group) and their distress.
The test was carried out as previously described. At 24 h before the start of a feeding test, all food was removed from the home cages of mice to be tested. The next day and at least 1 h before the feeding test began, the mice were transported to the laboratory. On test days, the animals were placed in the home cages for 30 min of drug assimilation, during which food was not available. Then compounds were intraperitoneally administered (10 mg/kg). Mice were transferred into transparent and individual plastic cages with thick white paper lining the bottom and access to a pre-measured amount of their regular lab chow (2 gr) for the 1-h test. At the end of 1 h, mice were repositioned into their home cage. The amount of food left in the trial cage, including crumbs, was measured, and the amount consumed was calculated.
Feeding trials normally happened on Tuesdays and Fridays between 12:00 and 14:00 h. […]

CB1R = target: T1, CB1R (Rattus norvegicus, UniProt P20272); experiment: [3H]WIN55,212-2 radioligand competition binding assay in rat brain membrane homogenate; details: read-out: Ki [3H]WIN55,212-2 binding, 5 nM [3H]WIN55,212-2, ± SEM, n.b. = no binding of ligands was observed
T1 construct: Crude membrane fractions were prepared from the brain; from tissue; host or cells: Wistar rat whole brain, crude membrane fraction
T1 sequence (P20272 whole entry): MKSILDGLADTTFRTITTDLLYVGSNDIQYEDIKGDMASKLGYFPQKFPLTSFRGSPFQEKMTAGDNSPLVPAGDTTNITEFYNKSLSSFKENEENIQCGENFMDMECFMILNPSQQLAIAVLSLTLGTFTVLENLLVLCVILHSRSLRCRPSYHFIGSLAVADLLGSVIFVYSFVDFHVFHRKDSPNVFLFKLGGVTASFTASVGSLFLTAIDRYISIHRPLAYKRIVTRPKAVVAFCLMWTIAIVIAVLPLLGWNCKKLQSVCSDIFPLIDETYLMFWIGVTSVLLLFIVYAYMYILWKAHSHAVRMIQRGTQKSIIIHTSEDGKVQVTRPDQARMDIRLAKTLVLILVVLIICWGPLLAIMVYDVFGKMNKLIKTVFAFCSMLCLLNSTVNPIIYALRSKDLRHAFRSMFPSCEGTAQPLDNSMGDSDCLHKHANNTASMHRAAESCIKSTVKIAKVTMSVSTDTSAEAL
Experimental: Our novel chemical compounds were tested in vitro for their binding ability, efficacy, and potency on CB1R in rat brain membrane homogenate (Table 2 and SI, Figure S1). CB1Rs are the most abundant G-protein coupled receptors in the rodent and mammalian brain; therefore, this is an appropriate model to characterize our ligands in a more physiological system.
In Vitro Biological Assays
Preparation of Brain Membrane Homogenates
Wistar rats were locally bred and handled according to the EU Directive 2010/63/EU and to the Regulations on Animal Protection (40/2013. (II. 14.) Korm. r.) of Hungary. Crude membrane fractions were prepared from the brain. Brains were quickly removed from the euthanized rats and directly put in an ice-cold 50 mM Tris-HCl buffer (pH 7.4). The collected tissue was then homogenized in 30 volumes (v/w) of an ice-cold buffer with a Braun Teflon-glass homogenizer at the highest rpm. The homogenate was centrifuged at 20,000 × g for 25 min, and the resulting pellet was suspended in the same volume of a cold buffer followed by incubation at 37 °C for 30 min to remove endogenous ligands. Centrifugation was then repeated. The final pellets were taken up in five volumes of a 50 mM Tris-HCl (pH 7.4) buffer containing 0.32 M sucrose and stored at -80 °C. Prior to the experiment, aliquots were thawed and centrifuged at 20,000 ×g for 25 min and then they were resuspended in 50 mM Tris-HCl (pH 7.4), homogenized with a Douncer, followed by the determination of the protein concentration by the method of Bradford. The membrane suspensions were immediately used either in radioligand binding experiments or in [35S]GTPγS functional assays.
Radioligand Competition Binding Assay
Binding experiments were performed at 30 °C for 60 min in a 50 mM Tris-HCl binding buffer (pH 7.4) containing 2.5 mM of EGTA, 5 mM of MgCl2 and 0.5 mg/mL of fatty acid-free BSA in plastic tubes in a total assay volume of 1 mL that contained 0.3-0.5 mg/mL of a membrane protein. Competition binding […]
ligands. […] The incubation […]
was terminated by diluting the samples with an ice-cold wash buffer (50 mM of Tris-HCl, 2.5 mM of EGTA, 5 mM of MgCl2, 0.5% fatty acid free BSA, pH 7.4), followed by repeated washing and rapid filtration through Whatman GF/B glass fiber filters (Whatman Ltd., Maidstone, UK) pre-soaked with 0.1% polyethyleneimine (30 min before the filtration). Filtration was performed with a 24-well Brandel Cell Harvester (Gaithersburg, MD, USA). Filters were air-dried and immersed into Ultima Gold MV scintillation cocktail, and then radioactivity was measured with a TRI-CARB 2100TR liquid scintillation analyzer (Packard, Perkin Elmer, Waltham, MA, USA). […]
The results of the competition binding studies are reported as means ± S.E.M. of at least three independent experiments each performed in duplicate. In competition binding studies, the inhibitory constants (Ki) were calculated from the inflection points of the displacement curves using non-linear least-square curve fitting and the Cheng-Prusoff equation, Ki= […]/(1 + [ligand]/Kd). […]

## CNC(=O)[C@@H](NC(=O)c1nn(-c2ccc(Cl)cc2)c(-n2cccc2)c1C)C(C)(C)C [Compound 34, RS2691-tLeu-NHCH3]
Mice [1]
  anti-nociceptive effect in hot plate test (%MPE): strong and long-lasting anti-nociceptive effect; also recorded: more potent than that of the reference compound
Mice [2]; 100 μg/20 μL s.c., 15 min before zymosan
  anti-inflammatory effect on zymosan-induced paw volume increase: significantly reduce paw volume increase induced by zymosan from 1 to 4 h; also recorded: reduced the paw volume increase from 1 to 4 h
Mice [2]; s.c. injection, for 24 h
  percentage of paw volume in zymosan-induced hindlimb edema: below 75%
Mice [3]
  food intake: increase food intake; also recorded: increased the food intake; also recorded: significant orexic effect
CB1R
  Ki: 6.9 ± 1.8 nM
